We go through 97 compounds from PubChem BioAssay AID1552 (Sanford-Burnham Center for Chemical Genomics, 2009).

The source made the active and inactive calls. How the calls were made is not given here.

Sequence of Ubiquitin-conjugating enzyme E2 N (Homo sapiens) (P61088 whole entry, looked up): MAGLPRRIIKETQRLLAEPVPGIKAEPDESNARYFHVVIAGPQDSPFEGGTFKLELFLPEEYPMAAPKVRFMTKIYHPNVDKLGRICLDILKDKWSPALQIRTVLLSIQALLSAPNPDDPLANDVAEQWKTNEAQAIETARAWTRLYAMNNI

This experiment has as its target Ubiquitin-conjugating enzyme E2 N (Homo sapiens) (UniProt P61088). As to the kind of experiment: NMR detection of UBE2N ligand binding – biophysical, purified protein (AID 1552). Conditions: NMR binding to purified UBE2N.
Broadly, the Kd is the equilibrium constant for the complex coming apart. `C=CC(C1=CC(=O)C=CC1=O)c1ccccc1` (configuration not stated): the Kd was > 4 mM (inactive). As to `CSc1nnc2ccc(-c3cccnc3)nn12`, the Kd is > 4 mM (inactive). As for `CC(=O)Nc1cnn(Cc2ccc(Br)cc2)c1`, the Kd was > 4 mM (inactive). Under `CN1CCCn2c1nc1c2c(=O)[nH]c(=O)n1C` stands > 4 mM (inactive); under `CC[C@H](CCC(C)[C@H]1CCC2C3CCC4C[C@@H](O)CC[C@]4(C)C3CC[C@@]21C)C(C)C` (some centres not stated), > 4 mM (inactive). In the case of `COCCn1c(SC)nc2c1c(=O)[nH]c(=O)n2C`, the Kd was > 4 mM (inactive). On to `CN1CCN(Cc2cccnc2)CC1`, for which the Kd was > 4 mM (inactive). Consider `CC(C)NC(=S)NCc1cnn(C)c1`, for which the Kd is > 4 mM (inactive). To `O=C(O)CNc1ncnc2nc[nH]c12` belongs > 4 mM (inactive); to `O=C(O)Cc1c[nH]c2ccccc12`, > 4 mM (inactive); to `OCc1cc2ccccc2o1`, > 4 mM (inactive). For the compound `COc1ccc([C@@H]2CC(=O)c3c(O)cc(O[C@@H]4O[C@H](CO[C@H]5O[C@@H](C)[C@H](O)[C@@H](O)[C@H]5O)[C@@H](O)[C@H](O)[C@H]4O)cc3O2)cc1O`, the Kd was > 4 mM (inactive).

As to `FC(F)(F)c1cc(-c2ccco2)nc(N2CCOCC2)n1`, the Kd was > 4 mM (inactive). Consider `CNC(=O)N1CCN(C(=O)NC)CC1`, for which the Kd is > 4 mM (inactive). Turning to `CN(C)S(=O)(=O)N1CCc2ccccc21`, the Kd was > 4 mM (inactive). Under `Cc1cc(C)c(NC(=O)CN2CCC(O)CC2)c(C)c1` stands > 4 mM (inactive); under `COc1ccc(C[C@H]2NC[C@H](O)[C@H]2OC(C)=O)cc1`, > 4 mM (inactive). As for `C/C=C(\C)C(=O)OC1[C@@H]2C=C3C(CC[C@]4(C)C3CC(=O)O[C@H]4c3ccoc3)C(C)(C2=O)[C@@H](C(O)C(=O)OC)C1(C)C` (some centres not stated), the Kd was > 4 mM (inactive). On to `O=C1CCC(=O)N1c1ccc(O)cc1`, for which the Kd was > 4 mM (inactive). Turning to `O=C(c1cnsn1)N1CCN(c2ccccc2)CC1`, the Kd is > 4 mM (inactive). Take `CC[C@H](/C=C/C(C)C1CCC2C3CCC4=CC(=O)CC[C@]4(C)C3CC[C@]12C)C(C)C` (some centres not stated): the Kd is > 4 mM (inactive).

`O=c1ccn(Cc2ccccc2)c(=O)[nH]1`: the Kd is > 4 mM (inactive). With `Cc1cc(C)n2nc(-c3cccnc3)nc2n1`, the Kd was > 4 mM (inactive). Regarding `CCc1ccc(C(=O)N2CCCC2)s1`, the Kd is > 4 mM (inactive).

For `CCOc1ccc2ccccc2c1C(=O)N1CCOCC1`, the Kd is > 4 mM (inactive). On to `CSc1nc(O)cc(=O)[nH]1`, for which the Kd is > 4 mM (inactive). Turning to `COc1cc2c(cc1OC)[C@@H]1C(=O)c3ccc4oc(C(C)C)cc4c3O[C@@H]1CO2`, the Kd was > 4 mM (inactive).

As to `OCC1CCCCCN1` (configuration not stated), the Kd was > 4 mM (inactive).

Regarding `C=C1C2CC[C@H]3[C@]4(C)C[C@H](OC5OC(CO)C(OS(=O)(=O)O)C(OS(=O)(=O)O)C5OC(=O)CC(C)C)C[C@@H](C(=O)O)[C@H]4CC[C@]3(C2)[C@H]1O` (some centres not stated), the Kd is > 4 mM (inactive). For `O=C(NCCCO)c1ccncc1`, the Kd is > 4 mM (inactive).

Regarding `O=C(O)c1ccc(CN2CCCCC2)o1`, the Kd was > 4 mM (inactive). Consider `Cn1c(SCCC(=O)O)nnc1-c1cccnc1`, for which the Kd was > 4 mM (inactive).

As to `c1ccc(Cn2c(Nn3cnnc3)nc3ccccc32)cc1`, the Kd was > 4 mM (inactive). To `O=C(NN1C(=O)C2C3C=CC(C3)C2C1=O)C1CC=CCC1` (configuration not stated) belongs > 4 mM (inactive); to `O=c1c2ccccc2oc2ccccc12`, > 4 mM (inactive); to `O=C(O)C1Cc2ccccc2N1` (configuration not stated), > 4 mM (inactive). Take `O=C1C2C3C=CC(O3)C2C(=O)N1c1ccccc1` (configuration not stated): the Kd was > 4 mM (inactive). As to `CN(C)N1C(=O)C2CCCCC2C1=O` (configuration not stated), the Kd is > 4 mM (inactive).

As for `NC(=O)CSc1ncnc2ccccc12`, the Kd was > 4 mM (inactive). With `COc1ccc2c(c1)OCC(Cc1ccc(OC)c(O)c1)C2=O` (configuration not stated), the Kd is > 4 mM (inactive). With `O=C(O)c1cccc(CSc2ncccn2)c1`, the Kd is > 4 mM (inactive). In the case of `CC1(C)NC(=O)N(CCOc2ccc3c(c2)CCC3)C1=O`, the Kd was > 4 mM (inactive).

With `CC(C)[C@@H]1CC[C@@H](C)CC1=O`, the Kd was > 4 mM (inactive).

`Cc1ccc(C(=O)n2cnnc2N)cc1C`: the Kd was > 4 mM (inactive).

As for `COc1cc([C@@H]2c3cc4c(cc3[C@H](O)[C@H]3COC(=O)[C@H]23)OCO4)cc(OC)c1OC`, the Kd was > 4 mM (inactive). Under `Cn1nnc2cc(C(=O)NC3CCCCC3)ccc21` stands > 4 mM (inactive); under `C[C@@H]1CC[C@@]2(OC1)O[C@H]1CC3C4CC[C@H]5C[C@@H](O)CC[C@]5(C)C4CC[C@]3(C)[C@H]1[C@@H]2C` (some centres not stated), > 4 mM (inactive). In the case of `O=C(O)c1ccc2ccccc2n1`, the Kd is > 4 mM (inactive).

On to `OCC1CCN(c2ncccn2)CC1`, for which the Kd is > 4 mM (inactive). Take `O=C(Nc1cccnc1)c1cccs1`: the Kd is > 4 mM (inactive).

For `CN(C)C(=O)CSc1nc(N)cc(=O)[nH]1`, the Kd was > 4 mM (inactive). As to `O=C1C=CC(=O)N1c1ccccc1O`, the Kd was > 4 mM (inactive).

For the compound `CC1(C)C2CC(=O)[C@]3(C)C(CC[C@@]4(C)[C@H](c5ccoc5)OC(=O)[C@H]5O[C@]543)[C@@]2(C)C(=O)C[C@H]1O` (some centres not stated), the Kd was > 4 mM (inactive). On to `CC(C)CCCC(C)[C@H]1CCC2C3CC=C4C[C@@H](O)CC[C@]4(C)C3CC[C@@]21C` (some centres not stated), for which the Kd was > 4 mM (inactive). To `CCOC(=O)CNC(=O)CSc1nnc(C)c(=O)[nH]1` belongs > 4 mM (inactive); to `COC(=O)c1ccc(NC(=O)CC2NCCNC2=O)cc1` (configuration not stated), > 4 mM (inactive); to `CCc1nnc(NC(C)=O)s1`, > 4 mM (inactive). With `CCC[C@@H]1CCCCN1`, the Kd was > 4 mM (inactive). For `O=C(O)c1ccc(-n2cccn2)cc1`, the Kd was > 4 mM (inactive). As for `CN(C)C(=O)CCNS(=O)(=O)c1ccccc1`, the Kd was > 4 mM (inactive). Consider `Cc1ccccc1NC(=O)CC1SC(N)=NC1=O` (configuration not stated), for which the Kd was > 4 mM (inactive). Consider `Cc1c(CCO)c(=O)n2c([nH]c3ccccc32)c1C#N`, for which the Kd was > 4 mM (inactive). `CC12OC(=O)CC3C(C)(C)[C@H](O)C=C[C@]3(C)C1CC[C@]1(C)C2=CC(=O)O[C@H]1c1ccoc1` (some centres not stated): the Kd was > 4 mM (inactive). Turning to `NC(=O)C1CCN(S(=O)(=O)c2ccccc2)CC1`, the Kd was > 4 mM (inactive). Take `O=c1c2ccccc2ncn1C1CCCCC1`: the Kd is > 4 mM (inactive). `Cc1noc(C)c1C(=O)Nc1ccccc1-c1ccccc1`: the Kd was > 4 mM (inactive). Regarding `N/C(=N/S(=O)(=O)c1cccs1)c1ccccc1`, the Kd is > 4 mM (inactive).

In the case of `Cc1nn(-c2ccccc2)c(Cl)c1C(N)=O`, the Kd is > 4 mM (inactive). Take `COc1ccc2c(c1)[nH]c1c(C)nccc12`: the Kd was > 4 mM (inactive).

With `CSc1ccccc1NC(=O)c1cccnc1`, the Kd is > 4 mM (inactive). As to `O=C(NCc1cccs1)c1ccc2c(c1)OCCO2`, the Kd was > 4 mM (inactive). Take `NC(=O)CSc1ccc(Br)cc1`: the Kd is > 4 mM (inactive). `O=C(CSc1ncccn1)Nc1nccs1`: the Kd is > 4 mM (inactive).

With `O=c1cccc2n1C[C@H]1CNCC2C1`, the Kd was > 4 mM (inactive). Consider `COc1ccc2c(c1O)-c1c(OC)c(OC)cc3c1[C@H](C2)N(C)CC3`, for which the Kd is > 4 mM (inactive). In the case of `NS(=O)(=O)c1ccc(N=Cc2ccc[nH]2)cc1`, the Kd is > 4 mM (inactive). With `NC(=O)CCS(=O)(=O)CCN1CCOCC1`, the Kd was > 4 mM (inactive).

Regarding `Nc1ccn(C2O[C@H](CO)[C@@H](O)[C@H]2O)c(=O)n1` (some centres not stated), the Kd is > 4 mM (inactive). Consider `Cc1ccc2[nH]c3nc(=S)[nH]nc3c2c1`, for which the Kd is > 4 mM (inactive). Under `COc1ccc2cc1Oc1ccc(cc1)C[C@H]1c3cc(c(OC)cc3CCN1C)Oc1c(OC)c(OC)cc3c1[C@H](C2)N(C)CC3` stands > 4 mM (inactive); under `CC(=O)Nc1nnc(-c2ccccc2)o1`, > 4 mM (inactive); under `COc1ccc2cnn(-c3ccccc3)c(=O)c2c1OC`, > 4 mM (inactive). `COc1cccc(/C=C2/SC(N)=NC2=O)c1`: the Kd was > 4 mM (inactive). Under `CN(C)c1nc(N2CCOCC2)c2cnn(C)c2n1` stands > 4 mM (inactive); under `CC(=O)NC(c1ccccc1)c1cccnc1` (configuration not stated), > 4 mM (inactive); under `CC(=O)c1cccc(NS(=O)(=O)N2CCCCC2)c1`, > 4 mM (inactive). Under `CC(=O)O[C@H]1C[C@@H](OC(C)=O)C(C)(C)C2C[C@@H](OC(C)=O)[C@]3(C)C(CC[C@@]4(C)[C@H](c5ccoc5)OC(=O)[C@H]5O[C@]543)[C@]21C` (some centres not stated) stands > 4 mM (inactive); under `CC(=O)O[C@@H]1CC2C(C)(C)C(=O)C3OC3[C@]2(C)C2CC[C@@]3(C)[C@H](c4ccoc4)OC(=O)C4OC43[C@@]21C` (some centres not stated), > 4 mM (inactive). Turning to `NC(=O)C1CCN(CC2CC=CCC2)CC1` (configuration not stated), the Kd is > 4 mM (inactive).

As for `CC[C@@]1(O)C(=O)OCc2c1cc1n(c2=O)Cc2cc3ccccc3nc2-1`, the Kd is > 4 mM (inactive). Under `COc1cc2nc(-c3cccs3)oc(=O)c2cc1OC` stands > 4 mM (inactive).

Regarding `O=c1c(O)c(-c2ccc(O)cc2O)oc2cc(O)cc(O)c12`, the Kd was > 4 mM (inactive). `Cn1c(=O)c2c(ncn2CCN)n(C)c1=O`: the Kd was > 4 mM (inactive). `Cc1ccc(C)n1CCN1CCNCC1`: the Kd is > 4 mM (inactive). Consider `O=c1c2ccccc2[nH]c2ncccc12`, for which the Kd was > 4 mM (inactive). To `Cc1ccc(-n2cnnn2)c2cccnc12` belongs > 4 mM (inactive). `O=C(Nc1cnccn1)c1ccncc1`: the Kd is > 4 mM (inactive).
